Data from patent publication US7659277B2, “Ubiquitin ligase inhibitors and methods related thereto” (Proteologies, Ltd., priority 2003, dated 2010).
Read-outs that look alike come from different tables or passages of the source.

What was measured:
Hmdm2 = Hmdm2 (Homo sapiens, UniProt Q00987); test: Selectivity (% A in 1 μM), ubiquitin ligase activity of Hmdm2; format: biochemical; settings: read-out: Selectivity (% A* in 1 μM) Hmdm2
POSH = target: T1, POSH (Homo sapiens, UniProt Q7Z6J0); test: IC50 assay procedure: GST-POSH auto-ubiquitination, homogeneous time-resolved fluorescence (Ub-cryptate / anti-GST XL665); format: biochemical; settings: ubiquitin ligase activity of POSH; GST-POSH 33 nM, 30 min preincubation
T1 construct: GST-POSH lot NB81/p.118 3.6 mg/ml; fused on or other part: GST tag, used for detection with anti-GST XL665
T1 sequence (Q7Z6J0 1-269 limits assumed): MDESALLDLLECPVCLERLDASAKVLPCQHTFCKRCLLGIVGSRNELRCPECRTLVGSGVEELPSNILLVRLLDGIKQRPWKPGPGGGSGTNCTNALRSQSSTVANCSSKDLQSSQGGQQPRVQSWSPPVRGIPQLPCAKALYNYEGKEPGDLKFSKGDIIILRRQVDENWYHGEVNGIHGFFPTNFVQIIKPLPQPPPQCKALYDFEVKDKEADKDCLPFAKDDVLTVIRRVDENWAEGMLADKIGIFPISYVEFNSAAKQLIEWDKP
Description: In certain preferred embodiments, agents that inhibit (or promote) the ubiquitin ligase activity of a ubiquitin ligase, such as POSH, may be identified using a homogenous time resolved fluorescence assay. Such an assay may employ a GST fused to the RING subunit of a ubiquitin ligase (e.g. POSH). Two flurophore-conjugated detection reagents are also used: anti-GSTXL665 and europium cryptate labeled ubiqutin. The ubiqutination of the ubiquitin ligase by ubiqutin cryptate and binding of the anti-GST tagged XL665 brings the fluorophores into close proximity allowing FRET reaction to occur. Accordingly, FRET serves as a measurement of ubiquitination of the ubiquitin ligase. An enzymatic system may be set up to provide activated ubiquitin, e.g., by providing ubiquitin, an E1 and an E2. Compounds that will not allow the FRET reaction are considered to be inhibitors.
Step 3: establish IC 50 value measurements.
Experimental Protocols: 1. HTS Screening Assay Procedure • Microplates 10109D to 10114D compounds at 1 mM. • (Controls in column 1). • All compounds were perchase from ChemBridge corporation: ChemBridge corporation 16981 Via Tazon, Suite G San Diego, Calif. 92127 a. Microplates Labeling • Put labels to 6 PS U-bottom clear microplate. • Put labels to 18 black microplates (triplicats). b. Microplates Preparation • Put 100 μl GST-POSH at 33 nM in wells of the clear PS U-bottom microplates (exept wells A1-D1). • Negative control: place 100 μl dH2O in wells A1-D1. • (Positive control: place 100 μl GST-POSH at 33 nM in wells E1-H1). • Put 8 μl enzymes solution ×4 to black microplates (column 1 to 11). c. Incubation of E3 with Compounds • Transfer 5 μl of compounds (at 1 mM) to the microplates containing 100 μl GST-POSH. • Add 5 μl of DMSO to controls column 1. • Incubation 30 minutes at RT. d. Enzymatic (Ubiquitination) and Final Steps • Distribution of (triplicate) 3×23 μl incubated compounds into 3 black microplates containing enzymatic solution (on splitting apparatus). • Incubation 30 minutes at 37° C. • Addition of 8 μl EDTA 0.5 M. • Incubation 15 (at least) minutes at RT. • Addition of 30 μl GST XL 665 in reconstitution buffer. • Incubation 45 (at least) minutes at RT. • Reading fluorescence. • Record results in computer. • Put sealing foil back on original and diluted microplates and keep at −70° C. • Always the plates must be closed with lids during each step. 2. […] Microplates Labeling • Put labels to 4 clear PP clear microplate (18.2 μM, 9.1 uM, 1.82 uM, 910 nM,). • Put labels to 5 clear PS U-bottom clear microplate 4.44 μM, 909, 444, 91 and 44 nM) • Put labels to 15 black microplates (triplicates). f. Original Microplate Dilutions • Put DMSO 40 μl to (18.2 μM, 1.82 uM plates) and 20 ul to (9.1 uM, 910 nM plates. • Mix by pipetation the original microplate (3× up and down 45 μl). • Transfer 10 μl of compounds from the original microplate (at 91 μM) to the next microplate (=18.2 μM) on splitting apparatus. • Mix by pipetation the 18.2 uM microplate (3× up and down 45 μl). • Transfer 20 μl of compounds from the 18.2 uM microplate to the next microplate (=9.1 μM) on splitting apparatus. • Mix by pipetation the 9.1 uM microplate (3× up and down 45 μl). • Transfer 10 μl of compounds from the 9.1 uM microplate to the next microplate (=1.82 μM) on splitting apparatus. • Mix by pipetation the 1.82 uM microplate (3× up and down 45 μl). • Transfer 20 μl of compounds from the 1.82 uM microplate to the next microplate (=910 nM) on splitting apparatus • Mix by pipetation. g. Microplates Preparation • Put 123 μl GST-POSH at 33 nM in wells of the 5 clear PS U-bottom clear microplates. • Positive control: place 123 μl GST-POSH at 33 nM in well A12-h12 13 μl DMSO. • Negative control: place 123 μl dH2O in well B1 and 13 μl DMSO. • Put 8 μl enzymes solution ×4 to 15 black microplates. • Controls: put 8 μl enzymes solution ×4 to wells A1 to F1. h. […]

[1] = % activity at 1 μM compound, control is related to 100% activity, HTS protocol

Hmdm2, sequence (Q00987 whole entry): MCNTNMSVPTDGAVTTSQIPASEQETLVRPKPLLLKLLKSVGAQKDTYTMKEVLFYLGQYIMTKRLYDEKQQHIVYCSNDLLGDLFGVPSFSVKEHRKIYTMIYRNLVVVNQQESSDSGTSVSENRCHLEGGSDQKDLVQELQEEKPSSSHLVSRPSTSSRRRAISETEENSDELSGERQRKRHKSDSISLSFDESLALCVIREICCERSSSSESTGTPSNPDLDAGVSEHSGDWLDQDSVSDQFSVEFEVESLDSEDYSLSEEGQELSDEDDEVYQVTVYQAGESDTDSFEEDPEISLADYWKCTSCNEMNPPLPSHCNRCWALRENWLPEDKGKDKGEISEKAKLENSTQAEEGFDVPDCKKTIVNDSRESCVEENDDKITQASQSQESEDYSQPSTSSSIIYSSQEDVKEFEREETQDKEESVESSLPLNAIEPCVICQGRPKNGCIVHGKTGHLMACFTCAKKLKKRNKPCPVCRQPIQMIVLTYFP

Compound	remaining activity at 1 µM (Hmdm2)	IC50 (POSH)	remaining activity at 1 µM (Hmdm2; [1])
Cc1ccc(/N=C/c2cc(Br)cc(Br)c2O)c(C)c1 [Compound 54]	124%	500 nM	
COc1cc(N/C=C2/C(=O)NC(=S)N(c3ccc(F)cc3)C2=O)cc(OC)c1 [Compound 17]		700 nM	106%
Cc1cc([N+](=O)[O-])ccc1/N=C/c1ccc[nH]1 [Compound 70]	125%	600 nM	
Cc1ccc2nc(-c3ccc(/N=C/c4ccc([N+](=O)[O-])s4)cc3)sc2c1 [Compound 72]		800 nM	124%
Oc1ccc2ccccc2c1/C=N/c1ncc(Br)cc1Br [Compound 66]		900 nM	120%
Cc1ccc(/C=N/c2ccc(C(N)=O)cc2)o1 [Compound 73]		1500 nM	96%
O=C1\C(=C/C=C/C=C/Nc2ccccc2)SC(=S)N1c1ccccc1 [Compound 24]		1000 nM	69%
COc1ccccc1N1C(=O)NC(=O)/C(=C\C=C\c2ccccc2)C1=O [Compound 10]		1000 nM	116%
Cc1cc(C)c(O)c(/N=C/c2c(O)ccc3ccccc23)c1 [Compound 65]		1000 nM	98%
CC(=C\c1ccccc1)/C=C1/SC(=N)NC1=O [Compound 31]		900 nM	102%
S=C(c1ccc(-c2cc(Cl)ccc2Cl)o1)N1CCCCC1 [Compound 35]	101%	500 nM	
O=C1NC(=O)C(=Cc2ccc(-c3cc(Cl)ccc3Cl)o2)C(=O)N1 [Compound 1]	105%	200 nM	
O=c1/c(=C/c2ccc(N3CCOCC3)cc2)sc2nc3ccccc3n12 [Compound 32]	141%	500 nM	
O=C1NC(=O)/C(=C\c2ccc(-c3ccc(F)cc3)o2)S1 [Compound 108]		900 nM	108%
CN(C)c1ccc(/C=C2\C(=O)N(c3ccc([N+](=O)[O-])cc3)N=C2N2CCOCC2)cc1 [Compound 42]	111%	5000 nM	
Oc1c(Br)cc(Cl)cc1/C=N/c1ccccc1Br [Compound 58]		800 nM	102%
COc1ccccc1/C=C1\N=C(c2ccccc2Cl)OC1=O [Compound 49]		1000 nM	115%
COc1ccc(N2C(=O)NC(=O)/C(=C\C=C\c3ccccc3)C2=O)cc1 [Compound 8]	78%	500 nM	
C=CCN1C(=O)NC(=O)/C(=C/c2ccc(F)cc2)C1=O [Compound 12]		1000 nM	99%
Cc1cc(I)ccc1NCn1nnc2ccccc21 [Compound 105]		800 nM	102%
COc1ccc(/C=C2\C(=O)NC(=S)N(c3ccccc3)C2=O)cc1 [Compound 11]		10000 nM	95%
COc1ccc(/C=C/C(=O)C2C(=O)CCC2=O)cc1OC [Compound 113]		400 nM	101%
O=[N+]([O-])c1ccc(Cl)cc1CN1CCN(CCO)CC1 [Compound 82]		300 nM	120%

Compound	remaining activity at 1 µM (Hmdm2)	IC50 (POSH)	remaining activity at 1 µM (Hmdm2; [1])
C=CCN1C(=O)NC(=O)/C(=C\c2ccccc2)C1=O [Compound 2]	108%	700 nM	
O=c1nc(-c2ccc(Br)cc2)cc(-c2ccc([N+](=O)[O-])cc2)[nH]1 [Compound 84]	102%	300 nM	
CC(=O)Nc1ccc(-c2cc3ccccn3c2)cc1 [Compound 78]		900 nM	93%
O=C1C=CC(=O)N1c1cc(Cl)cc(Cl)c1 [Compound 23]		200 nM	107%
Cc1ccc2nsnc2c1/N=C/c1c(O)ccc2ccccc12 [Compound 53]	125%	500 nM	
OCc1cccc(/N=C/c2cccc(O)c2O)c1 [Compound 57]	80%	300 nM	
O=[N+]([O-])c1ccc(-c2ccc(/N=C/c3c(O)ccc4ccccc34)cc2)cc1 [Compound 60]		1000 nM	90%
Oc1c(Br)cc(Cl)cc1/C=N/c1ccccn1 [Compound 64]		900 nM	115%
O=C1N=C(c2ccccc2)S/C1=C/c1ccc2ccccc2c1 [Compound 41]		1000 nM	106%
CCCCCCOc1ccc(C=C2C(=O)NC(=S)NC2=O)cc1 [Compound 15]	90%	500 nM	
Oc1c(Br)cc(Br)cc1/C=N/c1cccc2nsnc12 [Compound 112]		700 nM	113%
O=C(C(Cl)Cl)N1CCN(c2ccc([N+](=O)[O-])cc2)CC1 [Compound 79]		900 nM	94%
Cc1c(C(=O)/C=C/c2cccs2)c2cc(O)ccc2n1C [Compound 76]	110%	400 nM	
O=C1/C(=C\c2ccc(Cl)c([N+](=O)[O-])c2)Sc2ccccc21 [Compound 50]		100 nM	98%
O=c1nc(C(F)(F)F)cc(/C=C/c2ccc(-c3ccc(Br)cc3)o2)[nH]1 [Compound 39]		1000 nM	108%
O=C1CC(NNc2ccccc2)C(=O)N1c1cccc(Cl)c1 (stereo not shown) [Compound 22]		900 nM	102%
O=C1NC(=O)N(c2ccc(Br)cc2)C(=O)/C1=C/c1ccc(O)cc1 [Compound 5]		300 nM	61%
O=C1NC(=S)N(c2ccccc2)C(=O)/C1=C\c1c(Cl)cccc1Cl [Compound 6]		800 nM	129%
O=C1C=CC(=O)N1c1ccccc1Cl [Compound 18]	101%	700 nM	
COc1ccc(CC(C)NCc2ccccc2Cl)cc1 (stereo not shown) [Compound 107]		1000 nM	113%
CN(C)c1ccc(/C=C2\SC(=S)N(C3CCS(=O)(=O)C3)C2=O)cc1 (stereo not shown) [Compound 110]	51%	600 nM	
Cc1cc(/N=C/c2c(O)ccc3ccccc23)no1 [Compound 111]		1000 nM	72%
O=C1S/C(=C/c2ccc(-c3ccc([N+](=O)[O-])cc3Cl)o2)C(=O)N1c1ccccc1 [Compound 27]		700 nM	
